For series [1], the system named is Plasmodium falciparum. The series is described as follows: Antimalarial activity against Plasmodium falciparum by flow cytometry. The format is functional, organism-based.
The subject of series [2] is Leishmania amazonensis. The series is described as follows: Antileishmanial activity against intracellular Leishmania amazonensis infected in mouse peritoneal macrophages. The format is functional, organism-based.
Series [3] concerns Trypanosoma brucei brucei. As to the kind of experiment: Antitrypanosomal activity against bloodstream form of Trypanosoma brucei brucei. The class given is functional, organism-based.
Series [4] has as its system Leishmania amazonensis. As to the kind of experiment: Antileishmanial activity against Leishmania amazonensis infected in mouse visceral leishmaniasis model assessed as decrease in parasitemia level in liver at 1 mg/kg/day, ip administered 5 times. The format is functional. More on the design: scale not given: the % may be the effect or the level left. To be noted: route intraperitoneal.

For series [5], the system named is Vero. The series is described as follows: Cytotoxicity against african green monkey Vero cells. The format is cell-based. Particulars: Chlorocebus sabaeus.
In series [6] the test system is Mus musculus. The series is described as follows: Toxicity in Leishmania amazonensis infected mouse visceral leishmaniasis model at > 1 mg/kg/day, ip. Also on record: route intraperitoneal. Particulars: in vivo. The class given is organism-based.
The nature of series [7]: Selectivity index, ratio of IC50 for african green monkey Vero cells to IC50 for bloodstream form of Trypanosoma brucei brucei. The class given is toxicity, cell-based. Particulars: read-out: Ratio IC50.
Series [8] relates to Leishmania amazonensis. As to the kind of experiment: Antileishmanial activity against Leishmania amazonensis infected in mouse visceral leishmaniasis model assessed as decrease in parasitemia level in liver at 10 mg/kg/day, ip administered 5 times. The format is functional. More on the design: scale not given: the % may be the effect or the level left. Particulars: route intraperitoneal.

Each structure is given as a SMILES string. Where a name gives a salt, the structure may show the parent alone.

Regarding `COc1ccc2cc3[n+](cc2c1OC)CCc1cc2c(cc1-3)OCO2` [BERBERINE SULFATE], the IC50 in series [1] came out at 800 nM; in series [2], 17000 nM; in series [3] it was 1100 nM.

Compound `Cc1ccc(C(=O)Nc2ccc(S(=O)(=O)O)c3cc(S(=O)(=O)O)cc(S(=O)(=O)O)c23)cc1NC(=O)c1cccc(NC(=O)Nc2cccc(C(=O)Nc3cc(C(=O)Nc4ccc(S(=O)(=O)O)c5cc(S(=O)(=O)O)cc(S(=O)(=O)O)c45)ccc3C)c2)c1` [SURAMIN] registered an IC50 in series [3] of 250 nM.

With `CCC1(CC)c2c(ccc(OC)c2OC)C(=O)c2c3cc4c(cc3cc[n+]21)OCO4.[Cl-]`, the Activity in series [4] is listed as 47%; in series [6] it was “Toxic”. In addition, the IC50 in series [5] was 91000 nM; in series [1] it was 36 nM; in series [2], 180 nM; in series [3], 9.1 nM. Further, the selectivity ratio in series [7] worked out at 10000.

In the case of `CCCCCCCCCCCCCCCCOP(=O)([O-])OCC[N+](C)(C)C` [MILTEFOSINE], in series [8], the Activity was found to be 98%.

In series [2], `C[C@@H]1[C@H](O)[C@@H](C)/C=C/C=C/C=C/C=C/C=C/C=C/C=C/[C@H](O[C@@H]2O[C@H](C)[C@@H](O)[C@H](N)[C@@H]2O)C[C@@H]2O[C@](O)(C[C@@H](O)C[C@@H](O)[C@H](O)CC[C@@H](O)C[C@@H](O)CC(=O)O[C@H]1C)C[C@H](O)[C@H]2C(=O)O` [AMPHOTERICIN B] had an IC50 of 120 nM.

Source of the values: ChEMBL document CHEMBL1770093, “Potent antiprotozoal activity of a novel semi-synthetic berberine derivative” (Bioorg Med Chem Lett, 2011).
